The text below walks through data of patent US8084049B2, “Complexes of fatty acid esters of polyhydroxyalkanes and pyridine carboxy derivatives” (priority 2002, dated 2011).

Structures are written as SMILES. “Also recorded” adds a separate entry of the source.

The subject of assay [1] is 12-O-tetradecanoylphorbol-13-acetate (TPA) induced mouse ear inflammation. Description: acute TPA induced mouse ear inflammation model (Example 111). The note with it: vs vehicle. The assay is classed as in vivo, female BALB/ca mice.
Excerpt: This was done by comparing a high dose, corresponding to Emax (the maximal obtainable effect representing the plateau of the dose-response curve) with the individual effects of the molar amount present of each component of the complex. If the effect of the complex is higher than the sum of the components the effect is synergistic. […] The positive control used in this study was betamethasone 17-valerate applied as a commercial preparation with maximum human dose (Celeston® Cutaneous Solution 0.1%, Shering-Plough).
The test substances were administered 20 minutes before and 20 minutes after application of TPA to the ear.
All groups were treated with 20 μl TPA solution 400 μg/ml in acetone, on the right ear.
Three hours after the TPA application the mice were sacrificed, the ears cut from the tip with a punch biopsy knife (8 mm diameter) and weighed.
Differences in relative ear oedema between the vehicle treated group and the other groups were tested for significance employing a non-parametric statistical method of analysis, the Mann-Whitney U test. The required level of significance was p<0.05.
Assay [2] deals with sub-chronic TPA induced mouse ear inflammation. Description: sub-chronic TPA (repeated application) mouse ear inflammation model (Example 112). The assay is classed as in vivo, female BALB/ca mice. The protocol:
Investigation of two complexes according to the invention in a recognized pharmacodynamic model of sub-chronic inflammation.
The objective of this study was to assess the therapeutic value of the complexes of the invention in a very demanding pharmacodynamic model of dermal inflammation. Repeated application of TPA to the ears of the mice within 48 hours yields an inflammatory lesion with infiltration of leukocytes and persistent swelling. The reapplication of TPA ([…]) after 48 hours produces an inflammation and ear oedema, which is more dramatic due to the involvement and activation of a vast number of inflammatory cells. Therefore the model is suitable for drug evaluation in relation to more aggravated or chronic inflammatory conditions. The test substance for evaluation is co-applied with the second TPA application. […]
Mean weights and standard deviations were calculated. Relative ear oedema was assessed as the weight difference between right and left ear of each mouse expressed as percent of the left ear. Percent inhibition of the relative ear oedema compared with the vehicle treated groups was calculated for the test substance and positive control treated group. […]

In assay [3] the test system is Streptococcus faecalis. The assay is described as follows: antimicrobial MIC test (Example 113). The assay is classed as cell-based. The settings on record: 1 to 4 days culture; initial test concentration 3 mM in 1% DMSO and dilutions. The protocol: (§1) Test substance or vehicle is added to test wells containing the selected microorganisms (1×10^4 to 5×10^5 CFU/ml)in cultures grown under controlled conditions. The final innoculum concentration is determined by reference to a standard optical density curve and adjusted as required. After 1 to 4 days, growth of the culture is examined and scored positive (+) for inhibition of growth or turbidity, or negative (−) for no effect upon growth or turbidity. An initial test concentration of 3 mM in 1% DMSO is used and dilutions are tested to establish the minimal inhibitory concentration (MIC).

The test system of assay [4] is Microsporum canis. Description: antimicrobial MIC test (Example 113). The assay is classed as cell-based. The note with it: 1 to 4 days culture; initial test concentration 3 mM in 1% DMSO and dilutions. The protocol:
as §1

Assay [5] relates to Epidermophyton floccosum. Description: antimicrobial MIC test (Example 113). The assay is classed as cell-based. The settings on record: 1 to 4 days culture; initial test concentration 3 mM in 1% DMSO and dilutions. The protocol: as §1
Assay [6] concerns Trichophyton rubrum. Description: antimicrobial MIC test (Example 113). The assay is classed as cell-based. The settings on record: 1 to 4 days culture; initial test concentration 3 mM in 1% DMSO and dilutions. As for the experimental part: as §1
Assay [7] relates to Candida albicans. The assay is described as follows: antimicrobial MIC test (Example 113). The assay is classed as cell-based. The note with it: 1 to 4 days culture; initial test concentration 3 mM in 1% DMSO and dilutions. As for the experimental part: as §1

With `NC(=O)c1cccnc1` [Niacinamide], in assay [1] (64.1 μmol/ear, given 20 min before and 20 min after TPA, ears weighed 3 h after TPA), the “% Inhibition of relative ear oedema” value is given as 18%.

For `CCCCC(=O)O[C@]1(C(=O)CO)[C@@H](C)C[C@H]2[C@@H]3CCC4=CC(=O)C=C[C@]4(C)[C@@]3(F)[C@@H](O)C[C@@]21C` [Betamethasone 17-valerate], the “% Inhibition of relative ear oedema” value was found to be 66% in assay [1] (0.02 mg/ear (Celeston Cutaneous Solution 0.1%), 20 min before and after TPA, 3 h after TPA); 31% in assay [2] (0.02 mg/ear, 20 min before and after TPA re-application at 48 h, 3 h after TPA, vs vehicle).

For `C[C@]12CCC(=O)C=C1CC[C@@H]1[C@@H]2[C@@H](O)C[C@@]2(C)[C@H]1CC[C@]2(O)C(=O)CO` [hydrocortisone], in assay [2] (observation of the inventor on mild steroids), the “effect in the sub-chronic TPA model” value is on record as “no effect; also recorded: no measurable effects”.

For the compound `CCCCCCCC(=O)OCC(O)CO` (racemic) [Rac-1-glyceryl-monocaprylate], the “% Inhibition of relative ear oedema” value in assay [1] (4.58 μmol/ear, given 20 min before and 20 min after TPA, ears weighed 3 h after TPA) amounted to 22%. For the same compound, the MIC entry in assay [3], in assay [4], in assay [5], in assay [6] and in assay [7] was “Not active at tested” each time.
